Measured values reported in patent publication US8754242B2, “Herbicides” (Syngenta Crop Protection LLC, priority 2007, dated 2014).

Assays:
Assay type in all cases: in vivo
[1] = tested on: Alopecurus myosuroides (ALOMY); assay: Test Example 1 pre-emergence herbicidal activity; settings: rate 250 g/ha, evaluated 20 days later; for pest or weed control at 250 g/ha: Alopecurus myosuroides, 480 h, read-out: Pre-emergence activity ALOMY (100=total damage to plant; 0=no damage to plant)
Method in brief: (§1)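 Once sown in standard soil, pots received an aqueous spray of the formulated active ingredient, either after one day or after ten days of controlled glasshouse growth. Plants then grew under optimum greenhouse conditions. Herbicidal effect was assessed visually 15 (post-emergence) or 20 (pre-emergence) days later, 100 meaning total plant damage.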

[2] = tested on: Avena fatua (AVEFA); assay: Test Example 1 pre-emergence herbicidal activity; settings: rate 250 g/ha, evaluated 20 days later; for pest or weed control at 250 g/ha: Avena fatua, 480 h, read-out: Pre-emergence activity AVEFA (100=total damage to plant; 0=no damage to plant)
Method in brief: as §1

[3] = tested on: Digitaria sanguinalis (DIGSA); assay: Test Example 1 pre-emergence herbicidal activity; settings: rate 250 g/ha, evaluated 20 days later; for pest or weed control at 250 g/ha: Digitaria sanguinalis, 480 h, read-out: Pre-emergence activity DIGSA (100=total damage to plant; 0=no damage to plant)
Method in brief: as §1

[4] = tested on: Echinochloa crus-galli (ECHCG); assay: Test Example 1 pre-emergence herbicidal activity; settings: rate 250 g/ha, evaluated 20 days later; for pest or weed control at 250 g/ha: Echinochloa crus-galli, 480 h, read-out: Pre-emergence activity ECHCG (100=total damage to plant; 0=no damage to plant)
Method in brief: as §1

[5] = tested on: Lolium perenne (LOLPE); assay: Test Example 1 pre-emergence herbicidal activity; settings: rate 250 g/ha, evaluated 20 days later; for pest or weed control at 250 g/ha: Lolium perenne, 480 h, read-out: Pre-emergence activity LOLPE (100=total damage to plant; 0=no damage to plant)
Method in brief: as §1

[6] = tested on: Setaria faberi (SETFA); assay: Test Example 1 pre-emergence herbicidal activity; settings: rate 250 g/ha, evaluated 20 days later; for pest or weed control at 250 g/ha: Setaria faberi, 480 h, read-out: Pre-emergence activity SETFA (100=total damage to plant; 0=no damage to plant)
Method in brief: as §1

[7] = tested on: Alopecurus myosuroides (ALOMY); assay: Test Example 1 post-emergence herbicidal activity; settings: rate 125 g/ha, evaluated 15 days later; for pest or weed control at 125 g/ha: 360 h, read-out: Post-emergence activity ALOMY (100=total damage to plant; 0=no damage to plant)
Method in brief: as §1

[8] = tested on: Avena fatua (AVEFA); assay: Test Example 1 post-emergence herbicidal activity; settings: rate 125 g/ha, evaluated 15 days later; for pest or weed control at 125 g/ha: 360 h, read-out: Post-emergence activity AVEFA (100=total damage to plant; 0=no damage to plant)
Method in brief: as §1

[9] = tested on: Digitaria sanguinalis (DIGSA); assay: Test Example 1 post-emergence herbicidal activity; settings: rate 125 g/ha, evaluated 15 days later; for pest or weed control at 125 g/ha: 360 h, read-out: Post-emergence activity DIGSA (100=total damage to plant; 0=no damage to plant)
Method in brief: as §1

[10] = tested on: Echinochloa crus-galli (ECHCG); assay: Test Example 1 post-emergence herbicidal activity; settings: rate 125 g/ha, evaluated 15 days later; for pest or weed control at 125 g/ha: 360 h, read-out: Post-emergence activity ECHCG (100=total damage to plant; 0=no damage to plant)
Method in brief: as §1

[11] = tested on: Lolium perenne (LOLPE); assay: Test Example 1 post-emergence herbicidal activity; settings: rate 125 g/ha, evaluated 15 days later; for pest or weed control at 125 g/ha: 360 h, read-out: Post-emergence activity LOLPE (100=total damage to plant; 0=no damage to plant)
Method in brief: as §1

[12] = tested on: Setaria faberi (SETFA); assay: Test Example 1 post-emergence herbicidal activity; settings: rate 125 g/ha, evaluated 15 days later; for pest or weed control at 125 g/ha: 360 h, read-out: Post-emergence activity SETFA (100=total damage to plant; 0=no damage to plant)
Method in brief: as §1

| Compound | pest or weed control at 250 g/ha [1] | pest or weed control at 250 g/ha [2] | pest or weed control at 250 g/ha [3] | pest or weed control at 250 g/ha [4] | pest or weed control at 250 g/ha [5] | pest or weed control at 250 g/ha [6] | pest or weed control at 125 g/ha [7] | pest or weed control at 125 g/ha [8] | pest or weed control at 125 g/ha [9] | pest or weed control at 125 g/ha [10] | pest or weed control at 125 g/ha [11] | pest or weed control at 125 g/ha [12] | other results |
| --- | --- | --- | --- | --- | --- | --- | --- | --- | --- | --- | --- | --- | --- |
| CCC1=NOC2C1[C@@H]1O[C@H]2[C@H]2C(O)=C(c3c(CC)cc(C)cc3CC)C(=O)[C@H]21 (stereo partly drawn) [Example T15] | 40% | 20% | 30% | 80% | 40% | 60% | 50% | 40% | 80% | 80% | 40% | 50% | – |
| CCOC[C@]12CC[C@H](O1)[C@@H]1C(=O)C(c3c(CC)cc(C)cc3CC)=C(O)[C@@H]12 [Example T18] | 100% | 100% | 100% | 100% | 100% | 100% | 100% | 100% | 100% | 100% | 80% | 100% | – |
| CCc1cc(C)cc(CC)c1C1=C(O)[C@@H]2[C@@H]3O[C@@H](C[C@H]3c3ccc(Cl)c(Cl)c3)[C@@H]2C1=O [Example T150] | 0% | 0% | 0% | 40% | 30% | 0% | 60% | 60% | 30% | 100% | 40% | 90% | – |
| CC[C@]12C=C[C@H](O1)[C@@H]1C(=O)C(c3c(C)cc(C)cc3C)=C(O)[C@@H]12 [Example T40] | 50% | 60% | 60% | 40% | 60% | 40% | 40% | 30% | 70% | 70% | 30% | 70% | – |
| CCc1cc(C)cc(CC)c1C1=C(O)[C@H]2[C@@H](C1=O)[C@@H]1CC[C@H]2O1 [Example T10] | 80% | – | 80% | 90% | 100% | 80% | 70% | 70% | – | 80% | 80% | 80% | Pre-emergence activity AVEFA (100=total damage to plant; 0=no damage to plant) [2]: 70; Post-emergence activity DIGSA (100=total damage to plant; 0=no damage to plant) [9]: 50 |
| CCc1cc(C)cc(CC)c1C1=C(O)[C@@H]2[C@@H]3O[C@@H](C[C@H]3c3ccc(SC)cc3)[C@@H]2C1=O [Example T162] | 70% | 70% | 40% | 80% | 90% | 10% | 90% | 90% | 100% | 100% | 70% | 100% | – |
| CCc1cc(C)cc(CC)c1C1=C(O)[C@@H]2[C@@H]3O[C@@H](C[C@H]3c3cccc(C#N)c3)[C@@H]2C1=O [Example T182] | 30% | 50% | 80% | 90% | 40% | 50% | 100% | 90% | 100% | 100% | 80% | 100% | – |
| Cc1cc(C)c(C2=C(O)C3C(C2=O)[C@@H]2CC(CO)[C@@]3(C)O2)c(C)c1 (stereo partly drawn) [Example T62] | 70% | 70% | 80% | 80% | 60% | 80% | 60% | 0% | 70% | 80% | 20% | 70% | – |
| Cc1cc(C)c(C2=C(O)[C@H]3[C@@H](C2=O)[C@]2(C)CC(C)[C@@]3(C)O2)c(C)c1 (stereo partly drawn) [Example T125] | 70% | 70% | 100% | 100% | 100% | 100% | 80% | 70% | 80% | 90% | 70% | 80% | – |
| C#CCOC(=O)OC1=C(c2c(C)cc(C)cc2C)C(=O)[C@@H]2[C@H]1[C@@]1(C)CC[C@]2(C)O1 (racemic) [Example P36] | 70% | 80% | 80% | 100% | 100% | 80% | 60% | 70% | 80% | 90% | 60% | 80% | – |
| Cc1cc(C)c(C2=C(O)[C@H]3[C@@H](C2=O)[C@@H]2CC[C@@]3(C)O2)c(C)c1 [Example T48] | – | – | – | – | – | – | – | – | – | – | – | – | Pre-emergence activity ALOMY (100=total damage to plant; 0=no damage to plant) [1]: 100; Pre-emergence activity AVEFA (100=total damage to plant; 0=no damage to plant) [2]: 80; Pre-emergence activity DIGSA (100=total damage to plant; 0=no damage to plant) [3]: 100; Pre-emergence activity ECHCG (100=total damage to plant; 0=no damage to plant) [4]: 100; Pre-emergence activity LOLPE (100=total damage to plant; 0=no damage to plant) [5]: 100; Pre-emergence activity SETFA (100=total damage to plant; 0=no damage to plant) [6]: 100; Post-emergence activity ALOMY (100=total damage to plant; 0=no damage to plant) [7]: 80; Post-emergence activity AVEFA (100=total damage to plant; 0=no damage to plant) [8]: 70; Post-emergence activity DIGSA (100=total damage to plant; 0=no damage to plant) [9]: 100; Post-emergence activity ECHCG (100=total damage to plant; 0=no damage to plant) [10]: 100; Post-emergence activity LOLPE (100=total damage to plant; 0=no damage to plant) [11]: 70; Post-emergence activity SETFA (100=total damage to plant; 0=no damage to plant) [12]: 90 |
| Cc1cc(C)c(C2=C(O)[C@@H]3[C@@H]4O[C@@H]([C@H](Br)[C@H]4Br)[C@@H]3C2=O)c(C)c1 [Example T46] | 10% | 0% | 20% | 70% | 30% | 30% | 0% | 0% | 0% | 80% | 0% | 60% | – |
| CCc1cc(C)cc(CC)c1C1=C(OC(=O)C(C)(C)C)[C@H]2[C@@H](C1=O)[C@@H]1CC[C@H]2O1 (racemic) [Example P14] | 100% | 100% | 100% | 100% | 100% | 100% | 90% | 90% | 100% | 100% | 90% | 100% | – |
